These results are taken from patent US20240189328A1, “COMBINATION OF NOREPINEPHRINE REUPTAKE INHIBITOR AND A C[…] USE IN TREATING SLEEP APNEA” (APNIMED, INC. (DELAWARE), priority 2021, published 2024).

Each structure is given as a SMILES string.

The test system of this assay is participants with moderate to severe OSA. Description: Open-label 4-period dose-escalation study of dronabinol+atomoxetine, polysomnography (Example 3). Format: in vivo, human. Conditions: atomoxetine 80 mg alone, week 1 PSG, compared to baseline.

Text: This study is designed to assess the safety and efficacy for OSA of three escalating dose combinations of atomoxetine with dronabinol, compared to baseline and to atomoxetine alone.
The present study (SEED) is an open-label, 4 consecutive period dose-escalation study of combinations of atomoxetine and dronabinol in participants with moderate to severe OSA. Participants will undergo initial pre-screening to determine potential study eligibility. […] Only participants who meet all non-PSG enrollment criteria at Visit 1 are eligible for a screening PSG. On a case by case basis and with agreement of the Sponsor a PSG conducted at the site within 3 months may be used instead of the Screening PSG.
Participants who meet all enrollment criteria will receive an escalating dose of atomoxetine the first week: 3 days of atomoxetine 40 mg followed by 4 days of atomoxetine 80 mg. Participants will then receive escalating dose combinations of atomoxetine and dronabinol for the next 3 weeks. The weekly dose schedule is as follows: • Week 1: atomoxetine 40 mg×3 days, then 80 mg×4 days • Week 2: atomoxetine 40 mg/dronabinol 2.5 mg • Week 3: atomoxetine 80 mg/dronabinol 5 mg • Week 4: atomoxetine 80 mg/dronabinol 10 mg […]

In the case of `CNCCC(Oc1ccccc1C)c1ccccc1` (single isomer, unassigned; (-)) [Ato 80 mg, (−)-N-Methyl-3-phenyl-3-(o-tolyloxy)-propylamine], the “Hypoxic burden (HB4)” value is “significantly reduced”.
